This is an account of results in patent US5604233A, “Lactone stable formulation of 7-ethyl camptothecin and methods for uses thereof” (priority 1994, dated 1997).

The structures appear in SMILES notation. “Also recorded” adds a separate entry of the source. Where two headings read alike, the source gives them in different places.

For series [1] the following is noted: mice; cited from earlier work.
A further series deals with preclinical tumor models. The conditions noted are these: cited from earlier work.
For series [2] the following is noted: cited from earlier work; for sporadic toxicities: relative to parent compound.
In a further series the test system is topoisomerase I. Conditions: cited from earlier work.
In another series the test system is L1210 leukemia. The conditions noted are these: 10-100 mg/kg intraperitoneally; cited from earlier work.
The conditions of series [3]: cited from earlier work.
The conditions of series [4]: U.S. Pat. No. 4,713,246; cited from earlier work.
The test system of series [5] is Refractory or Relapsed Small Cell Lung Ca. The conditions noted are these: 100 mg/m^2 weekly; cited from earlier work.
In the next series the test system is Colon cancer. The conditions noted are these: 100 mg/m^2/week or 150 mg/m^2/Q 2 wks; cited from earlier work.
In series [6] the test system is Untreated Non Small Cell Lung Cancer. Conditions: 100 mg/m^2 weekday; cited from earlier work.
The subject of series [7] is Topoisomerase I purified from human colon carcinoma cells or calf thymus. Conditions: cited from earlier work.
The subject of a further series is Tumor. The conditions noted are these: cited from earlier work; for Toxicity: * dose limiting toxicity.
Series [8] can be described thus: Fractional amounts of lactone species of CPT-11 and HECPT (Rothenburg et al.). The series is classed as in vivo, human. The conditions noted are these: Table 4. An excerpt:
Fractional Amounts of Lactone Species of CPT-11 and HECPT as
Function of Increasing Single Dose LV. From Rothenburg et al.

The conditions of series [9]: cited from earlier work. The source holds these as a separate data set.
The test system of another series is Leukemia/Lymphoma. Conditions: cited from earlier work.
The subject of another series is human tumors. Conditions: nude mice xenografts; cited from earlier work.
Another series deals with Small Cell Lung Cancer. The conditions noted are these: 100 mg/m^2/week; cited from earlier work.
The conditions of series [10]: cited from earlier work. This is another data set of the same source.
The conditions of series [11]: 5-day continuous intravenous infusion; cited from earlier work.
A further series has as its system Cervical cancer. Conditions: 100 mg/m^2 weekly, 150 mg/m^2 weeks; cited from earlier work.
The conditions of series [12]: Phase II; cited from earlier work.
Where [13] appears, read: first Rothenberg line, no dose given.

Consider `CC[C@@]1(O)C(=O)OCc2c1cc1n(c2=O)Cc2cc3ccccc3nc2-1` [lactone form of camptothecin], for which the “toxicity relative to sodium camptothecin” value in series [1] is 10 fold. Besides, the “antitumor activity in preclinical studies” value (“antitumor activity” below) in the series on preclinical tumor models is recorded as “significant antitumor activity”.
As for `CC[C@@]1(O)C(=O)OCc2c1cc1n(c2=O)Cc2cc3c(CN(C)C)c(O)ccc3nc2-1` [topotecan], the “activity relative to parent compound” value in series [2] (human, in vivo) is “retain significant activity of the parent compound”. For the same compound, the sporadic toxicities result in series [2] is recorded as “less sporadic toxicities”.
Turning to `CCc1c2c(nc3ccccc13)-c1cc3c(c(=O)n1C2)COC(=O)C3(O)CC` (centres unmarked) [ECPT, 7-ethyl camptothecin], in the series on topoisomerase I, the “inhibition of Topoisomerase I” value is reported as “potent inhibitor”. Moreover, the “results relative to CPT-11 under the same conditions” value in the series with L1210 leukemia is “inferior”. The “antitumor activity” value with preclinical tumor models is recorded as “broad anticancer activity”. Moreover, in series [3], the solubility in water result is on record as “insufficiently water soluble for clinical use”.
For `COc1cc([C@@H]2c3cc4c(cc3[C@@H](O[C@@H]3O[C@@H]5CO[C@@H](C)O[C@H]5[C@H](O)[C@H]3O)[C@H]3COC(=O)[C@H]23)OCO4)cc(OC)c1O` [etoposide], in series [4], the “bioavailability following oral administration versus intravenous” value is on record as “substantially equivalent”.
For the compound `CCc1c2c(nc3ccc(OC(=O)N4CCC(N5CCCCC5)CC4)cc13)-c1cc3c(c(=O)n1C2)COC(=O)[C@]3(O)CC` [CPT-11, 7-Ethyl-10-[4-(1-piperidino)-1-piperidino]Carbonyloxy-Camptothecin], the “Reported Toxicities” value is on record as “Neutropenia, diarrhea” in series [5]; “anorexia, alopecia; also recorded: Neutropenia diarrhea; also recorded: nausea, vomiting” in series [6]; “Thrombocytopenia” in the series with Leukemia/Lymphoma (incidence not given). Also, the “Reported Toxicities: pneumonitis” value in series [5] was 12.5%. Besides, the results for the “Response (PRs)” value in series [5] and in series [6] were 7/15 and 23/72, respectively. Further, the “Response Rate” value is listed as 47% in series [5], 46% in the series on Colon cancer, 31.9% in series [6] and “No resp” in the series with Leukemia/Lymphoma (200 mg Q3). Besides, in the series with Colon cancer, the “Reported Toxicities: NN” value is given as 35%. Besides, the figures for the “Reported Toxicities: Neutropenia” value in the series on Colon cancer, in the series on Leukemia/Lymphoma (in vivo) and in the series with Cervical cancer were 53%, 91% and 89%, respectively. In addition, the “Reported Toxicities: diarrhea” value in the series on Colon cancer is given as 24%; with Small Cell Lung Cancer, 53.8%; in the series on Cervical cancer, 39.1%. The “Response (PR)” value in the series on Colon cancer was 6/17. Besides, the sporadic toxicities entry in series [2] is “less sporadic toxicities”. Besides, in series [7], the “inhibition of purified topoisomerase I” value is listed as “inhibited”. In addition, the Toxicity entry in the series with Tumor (Clavel et al, 90 min. QDx3 Q21 days, 115 mg/m^2/d (33-115)) was “Neutropenia* diarrhea; also recorded: nausea and vomiting; also recorded: alopecia”; in the series with Tumor (Culine et al, 90 min. Q21 days, 150 mg/m^2/wk (50-150)) it was “Neutropenia* diarrhea*; also recorded: vomiting, alopecia; also recorded: fatigue stomatitis”; with Tumor (Negoro et al, 30 min infusion, 100 mg/m^2 (50-150)), “Diarrhea*, N/V”; in the series with Tumor (Rothenberg et al, 90 mg QWx4 Q42 days, 180 mg/m^2/wk (50-180)), “Neutropenia, nausea; also recorded: vomiting, alopecia”; in the series with Tumor (Rowinsky et al, 90 min infusion Q21 day, 240 mg/m^2 (100-345)), “Neutropenia* vomiting; also recorded: diarrhea abd. pain; also recorded: flushing”. The “Tumor Type (responses)” value was 1 PR in the series with Tumor (Clavel et al, Breast); 1 PR with Tumor (Clavel et al, Mesothelioma); 1 PR in the series on Tumor (Culine et al, cervix); 1 PR with Tumor (Culine et al, esophagus); 1 PR in the series on Tumor (Culine et al, ovarian); 1 PR in the series on Tumor (Culine et al, renal). Further, the “Tumor Type (responses)” value with Tumor (Negoro et al, NS CLC) is 2 PRs; with Tumor (Ohe et al, 120 hr CI), “None”; in the series on Tumor (Rothenberg et al, Colon Ca), 2 PRs; in the series on Tumor (Rowinsky et al, Cervix Ca) it was 1 PR; with Tumor (Rowinsky et al, Colon Ca), 1 PR. Besides, the “overall fractional concentration of the lactone species through a range of doses” value in series [8] is “fairly constant”. Besides, the AUC is 2970 ng·h/mL in series [9] (CPT-11 50 mg/m^2/wkx4); 2230 ng·h/mL in [9] (CPT-11 100 mg/m^2/wkx4); 2810 ng·h/mL in [9] (CPT-11 150 mg/m^2/wk X4); 3830 ng·h/mL in series [9] (CPT-11 180 mg/m^2/wk X4); 1130 ng·h/mL in series [9] (setting [13]). Moreover, the CpMax is 1.70 µg/mL in series [9] (CPT-11 50 mg/m^2/wkx4); 1.29 µg/mL in series [9] (CPT-11 100 mg/m^2/wkx4); 1.56 µg/mL in series [9] (CPT-11 150 mg/m^2/wk X4); 1.97 µg/mL in series [9] (CPT-11 180 mg/m^2/wk X4); 0.89 µg/mL in [9] (setting [13]). In the series with Leukemia/Lymphoma (20 mg/m^2 bid x7), the “Response Rate (RR)” value was 25%. Besides, the “Response Rate (PR)” value with Leukemia/Lymphoma (40 mg/m^2 Q0x5) is given as 34%. Besides, the “Reported Toxicities: Gastrointestinal” value in the series on Leukemia/Lymphoma (in vivo) is listed as 76%. Moreover, in the series on human tumors, the “sensitivity of human tumors in relation to ability to produce HECPT” value is “independent of their ability to produce HECPT”. Besides, the entries for the “Reported Toxicities: N/V” value in the series on Small Cell Lung Cancer and with Cervical cancer were 61.5% and 51%, respectively. Also, the “Reported Toxicities: alopecia” value was 40.0% in the series on Small Cell Lung Cancer and 38.1% in the series with Cervical cancer. Further, in the series with Small Cell Lung Cancer, the “Response: CRs” value is given as 2 CRs. The “Response: PRs” value with Small Cell Lung Cancer was 7 PRs. The “Fractional amount of lactone species, CpMax Based” value in series [10] (single dose I.V. CPT-11 50 mg/m^2) is given as 0.51; in [10] (single dose I.V. CPT-11 80 mg/m^2) it was 0.44; in series [10] (single dose I.V. CPT-11 100 mg/m^2), 0.53; in series [10] (single dose I.V. CPT-11 125 mg/m^2), 0.55; in [10] (single dose I.V. CPT-11 150 mg/m^2) it was 0.42; in [10] (single dose I.V. CPT-11 180 mg/m^2), 0.42. Besides, in [11], the “interpatient variability in AUC and metabolism to HECPT” value was “large range of interpatient variability”. For the same compound, the “Response (complete responses)” value with Cervical cancer is “SCR”. In the series with Cervical cancer, the “Response: PR” value is 8 PR.
As to `CCC(O)(C(=O)O)c1cc2n(c(=O)c1CO)Cc1cc3ccccc3nc1-2` (centres unmarked) [sodium camptothecin], in series [12], the “toxicity in Phase II studies” value was “unpredictable and severe myelosuppression, gastrointestinal toxicity, hemorrhagic cystitis, and alopecia”.
As to `CC[C@@]1(O)C(=O)OCc2c1cc1n(c2=O)Cc2cc3cc4c(cc3nc2-1)OCO4` [10,11 methylene dioxycamptothecin, 10,11 methylenedioxy camptothecin], the “antitumor activity” value in the series with preclinical tumor models is “very active”.

By AUC is commonly meant the area under the concentration-time curve, a measure of exposure.
